# Experimental data taken from the supplement of paper PMC10307832.
# Legend:
# Test in all cases: relative viability (nuclei count vs DMSO), 5 days (fraction); higher = more cells survive
# [1] = compound: CC1=C(C(=O)N2C=CSC2=N1)CCN3CCC(=C(C4=CC=CC=C4)C5=CC=C(C=C5)F)CC3 + CS(=O)(=O)CCNCc1ccc(-c2ccc3ncnc(Nc4ccc(OCc5cccc(F)c5)c(Cl)c4)c3c2)o1 [Lapatinib] (partner 2 µM)
# How it was run: (§1)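 Cells from lung cancer lines were seeded into 1536-well plates and, one day later, dosed by pin tool. Treatments were either a single drug or a fixed dose of an anchor drug with five library-drug doses (not always all listed) in √10 steps. After 5 days, nuclei were stained in a one-step fixation (final 0.05% Triton X-100, 1% formaldehyde, 1 ug/ml Hoechst) and counted on 4× images, and relative viability is the treated-to-vehicle nuclei ratio, as the median of duplicate plates.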
# [2] = compound: CC1=C(C(=O)N2C=CSC2=N1)CCN3CCC(=C(C4=CC=CC=C4)C5=CC=C(C=C5)F)CC3 + C[C@@H](Oc1cc(-c2cnn(C3CCNCC3)c2)cnc1N)c1c(Cl)ccc(F)c1Cl [Crizotinib] (partner 1 µM)
# How it was run: as §1
# [3] = compound: CC1=C(C(=O)N2C=CSC2=N1)CCN3CCC(=C(C4=CC=CC=C4)C5=CC=C(C=C5)F)CC3 + Cc1cc(Nc2cc(N3CCN(C)CC3)nc(Sc3ccc(NC(=O)C4CC4)cc3)n2)n[nH]1 [Tozasertib] (partner 0.1 µM)
# How it was run: as §1
# [4] = compound: CC1=C(C(=O)N2C=CSC2=N1)CCN3CCC(=C(C4=CC=CC=C4)C5=CC=C(C=C5)F)CC3 + Nc1ncn([C@H]2C[C@H](O)[C@@H](CO)O2)c(=O)n1 [Decitabine] (partner 2 µM)
# How it was run: as §1
Cell Line,relative viability ([1]; first compound 0.08 µM),relative viability ([1]; first compound 0.253 µM),relative viability ([1]; first compound 0.8 µM),relative viability ([1]; first compound 2.53 µM),relative viability ([1]; first compound 8 µM),relative viability ([2]; first compound 0.08 µM),relative viability ([2]; first compound 0.253 µM),relative viability ([2]; first compound 0.8 µM),relative viability ([2]; first compound 2.53 µM),relative viability ([2]; first compound 8 µM),relative viability ([3]; first compound 0.08 µM),relative viability ([3]; first compound 0.253 µM),relative viability ([3]; first compound 0.8 µM),relative viability ([3]; first compound 2.53 µM),relative viability ([3]; first compound 8 µM),relative viability ([4]; first compound 0.08 µM),relative viability ([4]; first compound 0.253 µM),relative viability ([4]; first compound 0.8 µM),relative viability ([4]; first compound 2.53 µM),relative viability ([4]; first compound 8 µM)
201T,1.12,1.08,0.999,1.09,1.11,1.02,1.03,1.01,1.05,1.08,0.976,1.02,0.952,0.973,0.739,0.884,0.89,0.845,0.9,0.804
A-427,1.12,0.962,0.994,1.15,1.08,0.749,0.95,0.942,0.963,0.646,0.179,0.19,0.175,0.204,0.21,0.452,0.654,0.546,0.592,0.595
ABC-1,1.11,1.18,1.14,1.3,0.674,1.13,1.42,0.931,0.722,0.748,0.15,0.181,0.165,0.206,0.174,1.2,,1.04,1.18,1.02
BEN,0.507,0.626,0.798,0.757,0.53,0.725,0.818,0.963,0.963,0.69,0.48,0.493,0.493,0.529,0.551,0.807,0.703,0.702,0.737,0.708
CAL-12T,,0.588,0.754,0.668,0.644,0.694,0.829,0.657,0.741,0.46,0.316,0.304,0.311,0.302,0.255,,,,,
COR-L23,1.13,1.1,1.12,0.921,0.638,0.503,0.758,0.608,0.649,0.419,0.18,0.164,0.169,0.214,0.184,0.415,0.498,0.405,0.484,0.368
COR-L 105,0.33,0.443,0.336,0.379,0.401,0.676,0.809,0.641,0.836,0.786,0.322,0.346,0.34,0.388,0.345,0.59,0.629,0.71,0.719,0.509
Calu-6,1.04,0.925,1.1,1.4,0.817,0.713,0.864,0.631,0.782,0.576,,,,,,,,,,
ChaGo-K-1,,,,,,1.17,1.32,1.29,0.706,1.03,0.202,0.244,0.215,0.232,0.21,0.495,0.548,0.52,0.629,0.46
EBC-1,0.196,,0.212,0.191,0.225,0.215,,0.194,0.177,0.196,,,,,,,,,,
EKVX,0.173,0.227,0.194,0.19,0.231,0.863,1.15,1.01,0.894,0.703,0.385,0.444,0.35,0.334,0.359,0.345,0.335,0.376,0.366,0.386
EMC-BAC-2,0.744,0.924,0.89,0.877,0.773,0.725,0.801,0.696,0.766,0.676,0.192,0.278,0.275,0.278,0.261,1.14,,1.01,1.03,0.906
EPLC-272H,,0.921,0.809,1.09,0.873,,1.12,0.934,1.07,0.738,0.225,0.25,0.269,0.203,0.515,0.431,0.312,0.37,0.396,0.376
H3255,0.221,0.32,0.249,0.309,0.246,0.776,0.967,0.798,0.916,0.752,0.497,0.921,0.633,0.489,0.507,0.688,0.549,0.521,0.664,0.495
HARA,1.01,1.06,0.873,0.82,0.625,1,1.21,1.25,1.04,0.791,0.111,0.117,0.104,0.111,0.114,0.639,0.664,0.526,0.515,0.427
HCC-15,0.961,0.667,0.885,1.02,0.73,0.804,0.88,0.933,0.795,0.576,0.347,0.447,0.379,0.368,0.281,0.831,0.651,0.601,0.642,0.604
HCC-44,1.07,0.83,1,1.07,0.787,0.836,0.842,0.927,0.858,0.665,0.855,1.33,,0.896,0.525,1.03,1.09,0.995,1.02,0.985
HCC-78,0.851,0.784,0.731,0.779,0.51,0.283,0.335,0.34,0.319,0.326,0.402,0.468,0.451,0.345,0.303,0.769,0.803,0.765,0.683,0.536
